Test results published in patent publication US8802826B2, “Anti-clusterin antibodies and antigen binding fragments and their use to reduce tumor volume” (Alethia Biotherapeutics Inc., priority 2009, dated 2014).

Key:
[1] = tested on: DU145 human prostate cancer cell line; test: DU145 prostate tumor xenograft; assay type: in vivo, SCID mice; conditions: 5 mg/kg i.p. twice per week
Experimental: FIG. 6. Treatment of prostate cancer tumors with h16B5 reduces the growth of the tumors and increases their response to chemotherapy. DU145 prostate cancer cells (2×10^6) were implanted s.c. into SCID mice and allowed to grow until the tumor sizes were approximately 100 mm3. Tumors were measured bi-weekly with a digital caliper and tumor volumes were calculated as L×W×H. Each group contained 8 animals that were randomized prior to the beginning off the treatments. The results were expressed as mm^3±SEM. The P values were calculated using the Student's T test.
These studies were performed to measure the in vivo efficacy of h16B5 in models of human cancer. Antisense oligonucleotides and small interfering RNAs targeting clusterin have been reported to induce apoptosis and chemosensitivity in vitro in prostate cancer xenografts. The model system that was used comprised the DU145 human prostate cancer cell line that is androgen-insensitive and represents one of the most well characterized models for this disease. Thus, 2 million cells were implanted sub-cutaneously into the flanks of SCID mice and the tumors were allowed to grow to approximately 100 mm^3. Starting on day 1, h16B5 was injected intra-peritoneally (i.p.) at a dosage of 5 mg/kg and from day 4, taxotere (TxT) was injected i.p. at a dosage of 10 mg/kg. […]

EMT6 cells = test: wound healing (scratch) migration assay; assay type: cell-based, mouse; conditions: for activity in the scratch assay relative to the other antibodies: comparison between 16B5 configurations
Experimental: FIG. 4. h16B5 blocks the migration of cancer cell lines.
To test the activity of anti-clusterin antibodies against cancer cell migration, a standard wound healing, or scratch assay, was used. In this assay, EMT6 cells, a mouse mammary carcinoma cell line, was plated at high density and subjected to wounding by the creation of a scratch in the cell layer. At time 0, a wide denuded area is evident that quickly fills up after incubation of the cells at 37 C for 15 h (see upper left-hand panels in FIG. 4).

PC3 tumor cell line = test: invasive growth in Matrigel, PC3; assay type: cell-based, human; conditions: 8 μg/mL, up to 3 weeks
Experimental: (§1) FIG. 5. Inhibition of h16B5 reduces the invasiveness of human prostate cancer cells. The bottom of 12-well plates was covered with 200 μL Growth factor reduced matrigel (Becton Dickinson). Cells (2.5×10^4) were resuspended in 200 μL matrigel, which was layered on top of this, and finally 500 μL of cell specific growth medium was added on top of the matrigel. h16B5 was added to every layer of matrigel as well as the medium in a concentration of 8 μg/mL. Plates were incubated at 37° C. for up to 3 weeks during which the growth medium (+/−h16B5) was replenished weekly. The arrows indicate the areas of epithelial-like cells.
(§2) We then determined whether other cell lines such as the human prostate PC3 and DU145 cell lines, which secrete various levels of endogenous clusterin, could be affected in their invasive behavior and growth by the h16B5.

murine clusterin [2] = molecular target: T1, murine clusterin (Mus musculus, UniProt Q06890); test: immunohistochemistry on frozen sections of 4T1 mouse mammary tumors; assay type: binding; conditions: 5 μg/ml, 1 h
T1 construct: murine clusterin that was expressed in BR1-JM01 cells; endogenous in cells; host or cells: BR1-JM01 mouse mammary carcinoma cells
Experimental: FIG. 16. […] The experiment was performed using immunohistochemistry and detection was accomplished using a HRP-conjugated secondary antibody.
Briefly, the frozen sections were fixed with ice-cold acetone for 10 minutes and non-specific binding was blocked with a reagent supplied in a commercially available kit (Dako Canada, Inc., Burlington, ON). H16B5 was incubated with the mouse tumor section for 1 h at a concentration of 5 μg/ml. […] A control sample was processed in an identical manner with a human isotype control IgG.

[3] = tested on: PC-3 prostate cancer cells; test: PC-3 prostate tumor xenograft; assay type: in vivo, SCID mice
Experimental: PC-3 prostate cancer cells (2×10^6) were implanted s.c. into SCID mice and allowed to grow until the tumor sizes were approximately 100 mm^3. Tumors were measured bi-weekly with a digital caliper and tumor volumes were calculated as L×W×H. Each group contained 8 animals that were randomized prior to the beginning off the treatments. The results were expressed as mm^3±SEM.
A second prostate cancer model study was conducted in a different tumor model by implanting PC-3 prostate cancer cells. PC-3 cells are also hormone-insensitive but are documented as being slightly more invasive than the DU145 cells. As was described above, the cells were implanted sub-cutaneously in SCID mice and treatments were initiated when the tumors reached a volume of approximately 100 mm^3 (designated day 1). The h16B5 injections were administered i.p. on day 1 at 5 mg/kg and continued twice per week thereafter whereas a single TxT injection at 10 mg/kg was administered i.p. on day 5.

murine clusterin [4] = molecular target: T1, murine clusterin; test: immunofluorescence on BR1-JM01 cells; assay type: binding
DU145 cells = test: growth in Matrigel, DU145; assay type: cell-based, human; conditions: 8 μg/mL, up to 3 weeks
Experimental: as §1, §2

T1 sequence (Q06890 22-448): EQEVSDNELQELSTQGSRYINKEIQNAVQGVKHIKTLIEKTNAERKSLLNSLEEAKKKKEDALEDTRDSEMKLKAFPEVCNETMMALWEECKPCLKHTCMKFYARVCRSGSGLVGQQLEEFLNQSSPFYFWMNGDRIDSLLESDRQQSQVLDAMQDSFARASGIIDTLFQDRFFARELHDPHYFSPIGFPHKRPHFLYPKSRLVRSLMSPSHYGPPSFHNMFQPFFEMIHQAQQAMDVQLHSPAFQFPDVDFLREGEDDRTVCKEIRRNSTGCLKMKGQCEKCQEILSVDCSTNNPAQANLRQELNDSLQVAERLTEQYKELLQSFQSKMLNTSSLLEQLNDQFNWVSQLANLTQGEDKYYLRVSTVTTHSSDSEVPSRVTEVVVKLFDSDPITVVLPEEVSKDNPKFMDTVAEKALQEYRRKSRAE

## h16B5: humanized anti-clusterin IgG2 antibody, heavy chain SEQ ID NO.:9 and light chain SEQ ID NO.:10
[1]
  growth of the (primary) tumors compared to the control: significantly reduced
EMT6 cells; 37 C for 15 h
  migration of cells into the denuded area: blockage of migration
EMT6 cells
  activity in the scratch assay relative to the other antibodies: at least as active as the mouse 16B6
EMT6 cells; listed as humanized 16B5
  activity in the scratch assay relative to the other antibodies: most effective inhibitor
PC3 tumor cell line
  stellate morphology in Matrigel (invasive phenotype): significantly reduced
Murine clusterin [2]
  detection of murine clusterin in 4T1 tumors: detected murine clusterin
[3]; 5 mg/kg i.p. twice per week
  increase in overall survival: 47%
[3]; day 43 (no remaining animals in the control group)
  mice remaining alive: greater than 60%
[3]; day 43, 5 mg/kg i.p. twice per week
  reduction in average tumor size compared to the control group: 37%
[3]; h16B5 in combination with TxT
  survival of the animals: extended the survival
Murine clusterin [4]
  detection of murine clusterin expressed in BR1-JM01 cells: detected murine clusterin
DU145 cells
  sphere-like structures in Matrigel: smaller and fewer in number
